Consider 11 compounds from ChEMBL document CHEMBL1201862, “PubChem BioAssay data set” (2004).

Among the test systems are A549; Hs-578T; DU-145; OVCAR-5; NCI-H23; EKVX; MOLT-4; RPMI-8226; SR; SN12C; NCI-H460; MCF7; OVCAR-3; K562; SF-295; SK-MEL-2; OVCAR-8; CAKI-1; TK-10.
What all share (test): NCI anticancer screen, dose series, 48 h

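Five concentrations, 48 hours, 96-well plates. At the GI50, growth is halved.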 Active and inactive are the calls of the source. Rule as the data show it: active = GI50 up to about 1.1 µM and inactive = higher.

Regarding `CCc1ccccc1NNc1cc(=O)[nH]c(=O)[nH]1`, the GI50 was 24.5 µM (inactive) in the test on A549; 28.6 µM (inactive) with Hs-578T; 46.2 µM (inactive) in the test with DU-145; 22 µM (inactive) in the test on OVCAR-5; 34.8 µM (inactive) with NCI-H23; 17.5 µM (inactive) in the test on EKVX. Moreover, the GI50 with MOLT-4 is 26.7 µM (inactive); with RPMI-8226, 8.2 µM (inactive); in the test on SR it was 30.5 µM (inactive); in the test on SN12C it was 18.8 µM (inactive); with NCI-H460 it was 22.9 µM (inactive); in the test on MCF7, 19.4 µM (inactive). Also, the GI50 in the test with OVCAR-3 was 17.1 µM (inactive); with K562 it was 27 µM (inactive); in the test on SF-295, 17.9 µM (inactive); in the test on SK-MEL-2, 16.6 µM (inactive); in the test on OVCAR-8, 23.4 µM (inactive); in the test with CAKI-1, 4.09 µM (inactive). Besides, the GI50 in the test with TK-10 was > 10 µM (inactive).
On to `O=[N+]([O-])C(=C(N1CCCCC1)N1CCCCC1)/C(Cl)=C(\Cl)Br`, for which the GI50 is 32.7 µM (inactive) with A549; 0.871 µM (active) in the test on Hs-578T; 30.8 µM (inactive) in the test on DU-145; 18.7 µM (inactive) in the test on NCI-H23; 16.4 µM (inactive) with EKVX; 18.7 µM (inactive) with MOLT-4. Also, the GI50 with RPMI-8226 was 17.1 µM (inactive); with SR, 5.93 µM (inactive); with SN12C, 29.7 µM (inactive); with NCI-H460, 21 µM (inactive); in the test with MCF7 it was 21.9 µM (inactive); with OVCAR-3, 29.3 µM (inactive). The GI50 is 18.3 µM (inactive) in the test with K562; 54.5 µM (inactive) with SF-295; 16.4 µM (inactive) in the test with OVCAR-8; 13.3 µM (inactive) with CAKI-1; 25.5 µM (inactive) with TK-10.
On to `O=[N+]([O-])c1ccccc1OCCOc1ccccc1[N+](=O)[O-]`, for which the GI50 in the test with A549, with Hs-578T, in the test with DU-145, in the test with OVCAR-5, in the test on NCI-H23 and in the test on EKVX was > 100 µM (inactive) each time. Moreover, the GI50 in the test with MOLT-4, in the test with RPMI-8226, in the test on SR, in the test with SN12C, with NCI-H460 and in the test with MCF7 was > 100 µM (inactive) in each case. For the same compound, the GI50 was > 100 µM (inactive) with OVCAR-3; > 100 µM (inactive) in the test with K562; > 100 µM (inactive) in the test with SF-295; > 100 µM (inactive) in the test with SK-MEL-2; 64.6 µM (inactive) with OVCAR-8; > 100 µM (inactive) in the test with CAKI-1. For the same compound, the GI50 in the test with TK-10 is > 100 µM (inactive).
On to `O=C(OCCN=c1c2ccccc2ccc2ccccc12)c1ccccc1`, for which the GI50 with A549 is 86.5 µM (inactive); in the test with Hs-578T, 40.3 µM (inactive); in the test on DU-145, > 100 µM (inactive); with OVCAR-5 it was > 100 µM (inactive); in the test with NCI-H23 it was > 100 µM (inactive); in the test on EKVX, 29.2 µM (inactive). Further, the GI50 with MOLT-4 was > 100 µM (inactive); in the test on RPMI-8226, > 100 µM (inactive); with SR, > 100 µM (inactive); in the test with SN12C, 64.1 µM (inactive); with NCI-H460 it was 63.2 µM (inactive); in the test on MCF7, > 100 µM (inactive). Further, the GI50 was > 100 µM (inactive) in the test with OVCAR-3; 38 µM (inactive) in the test on K562; > 100 µM (inactive) with SF-295; > 100 µM (inactive) in the test on SK-MEL-2; 78.7 µM (inactive) in the test with OVCAR-8; 83.4 µM (inactive) in the test on CAKI-1. Further, the GI50 in the test on TK-10 is > 100 µM (inactive).
In the case of `Cc1ccc(-c2nc(C)c(C(=O)Nc3ccc(Cl)cc3)s2)cc1`, the GI50 is 61.7 µM (inactive) in the test with A549; 21.8 µM (inactive) in the test with Hs-578T; > 100 µM (inactive) in the test with DU-145; 82.2 µM (inactive) in the test on OVCAR-5; 24.2 µM (inactive) with NCI-H23; 37.8 µM (inactive) with EKVX. Further, the GI50 is > 100 µM (inactive) in the test with MOLT-4; > 100 µM (inactive) in the test on RPMI-8226; > 100 µM (inactive) with SR; 31.4 µM (inactive) in the test with SN12C; 29.5 µM (inactive) in the test with NCI-H460; > 100 µM (inactive) with MCF7. Moreover, the GI50 is 24.1 µM (inactive) with OVCAR-3; > 100 µM (inactive) in the test on K562; 15.4 µM (inactive) in the test with SF-295; 34.4 µM (inactive) with SK-MEL-2; 18.8 µM (inactive) in the test on OVCAR-8; 20 µM (inactive) with CAKI-1. For the same compound, in the test on TK-10, the GI50 was 20.6 µM (inactive).
In the case of `COC(=O)C1(Cc2ccc3c(c2)CCC3)Cc2ccccc2C1O` (stereo not given), the GI50 with A549 was 20.5 µM (inactive); in the test with Hs-578T, 20 µM (inactive); in the test on DU-145, 39.4 µM (inactive); in the test with OVCAR-5 it was 28.6 µM (inactive); in the test on NCI-H23, 19.8 µM (inactive); in the test on EKVX, 22.8 µM (inactive). Moreover, the GI50 with MOLT-4 is 8.22 µM (inactive); in the test on RPMI-8226 it was 24.5 µM (inactive); with SR, 26.4 µM (inactive); in the test on SN12C it was 15.2 µM (inactive); in the test with NCI-H460, 18.6 µM (inactive); in the test with MCF7, 24.3 µM (inactive). In addition, the GI50 was 20.5 µM (inactive) in the test on OVCAR-3; 12.2 µM (inactive) with K562; 17.5 µM (inactive) in the test on SF-295; 12.8 µM (inactive) in the test with SK-MEL-2; 18.6 µM (inactive) with OVCAR-8; 23.8 µM (inactive) in the test on CAKI-1. Also, the GI50 in the test with TK-10 was 22.1 µM (inactive).
As for `O=C1/C(=C/c2ccc(Cl)cc2)N=C(c2ccccc2)N1c1nc2ccccc2s1`, the GI50 in the test with Hs-578T was 20 µM (inactive); in the test on DU-145, 78.2 µM (inactive); in the test on OVCAR-5, > 100 µM (inactive); in the test with NCI-H23 it was 30.4 µM (inactive); in the test with EKVX, > 100 µM (inactive); in the test on MOLT-4, 0.548 µM (active). The GI50 with RPMI-8226 was 39.7 µM (inactive); in the test with SR it was 0.0537 µM (active); with NCI-H460, 57.4 µM (inactive); in the test on MCF7 it was 40.1 µM (inactive); in the test with OVCAR-3 it was 38.5 µM (inactive); in the test on K562 it was 26.4 µM (inactive). Besides, the GI50 is 40.4 µM (inactive) in the test on SF-295; 28.3 µM (inactive) in the test on SK-MEL-2; 59.4 µM (inactive) in the test with OVCAR-8; 58.9 µM (inactive) in the test with CAKI-1; 56.2 µM (inactive) with TK-10.
For the compound `CN(C)CCOc1ccc2[nH]c(C(=O)N3CC(CCl)c4c3cc([N+](=O)[O-])c3ccccc43)cc2c1` (stereo not given), the GI50 was 3.01 µM (inactive) in the test with Hs-578T; 2.55 µM (inactive) with DU-145; 2.32 µM (inactive) with OVCAR-5; 2.74 µM (inactive) in the test on NCI-H23; 3.13 µM (inactive) in the test with EKVX; 1.29 µM (inactive) in the test with MOLT-4. Moreover, the GI50 in the test on RPMI-8226 was 2.67 µM (inactive); with SR it was 1.72 µM (inactive); in the test with NCI-H460, 1.77 µM (inactive); with MCF7 it was 1.76 µM (inactive); in the test on OVCAR-3, 1.87 µM (inactive); with K562, 1.79 µM (inactive). Besides, the GI50 in the test with SF-295 was 2.51 µM (inactive); in the test on SK-MEL-2, 2.15 µM (inactive); in the test on OVCAR-8 it was 1.6 µM (inactive); in the test on CAKI-1 it was 2.79 µM (inactive); in the test on TK-10, 1.94 µM (inactive).
For `C/C1=C\[C@H](C)C[C@H](C)OC(=O)C[C@H](c2ccc(O)cc2)NC(=O)[C@@H](Cc2c(Br)[nH]c3ccccc23)N(C)C(=O)[C@H](C)NC(=O)[C@@H](C)C1` [JASPAMIDE], the GI50 with A549 is 0.172 µM (active); in the test with Hs-578T it was 0.0611 µM (active); in the test with DU-145 it was 0.0594 µM (active); in the test with OVCAR-5, 0.457 µM (active); in the test with NCI-H23, 0.467 µM (active); in the test with EKVX, 0.275 µM (active). For the same compound, the GI50 in the test on MOLT-4 was 0.682 µM (active); with RPMI-8226, 0.218 µM (active); in the test with SR, 0.0578 µM (active); in the test with SN12C it was 0.361 µM (active); in the test with NCI-H460 it was 0.233 µM (active); in the test on MCF7, 0.0895 µM (active). The GI50 is 0.139 µM (active) in the test on OVCAR-3; 0.667 µM (active) with K562; 0.259 µM (active) in the test on SF-295; 0.381 µM (active) with OVCAR-8; 0.092 µM (active) in the test on CAKI-1; 0.294 µM (active) with TK-10.
On to `CC(C)(C)OC(=O)N(CCCN)CCCCN(CCCN)C(=O)OC(C)(C)C`, for which the GI50 with A549, in the test with Hs-578T, in the test on DU-145, in the test on OVCAR-5, in the test with NCI-H23 and in the test with EKVX was > 100 µM (inactive) throughout. Further, the GI50 in the test with MOLT-4, in the test on RPMI-8226, with SR, in the test on NCI-H460, in the test with MCF7 and in the test with OVCAR-3 was > 100 µM (inactive) in each case. Further, the GI50 in the test on K562, with SF-295, in the test with SK-MEL-2, in the test on OVCAR-8, in the test on CAKI-1 and in the test on TK-10 was > 100 µM (inactive) throughout.
Take `S=C1CC(c2ccccc2)Sc2ccccc2N1` (stereo not given): the GI50 in the test on A549 is > 10 µM (inactive); with Hs-578T, 25.5 µM (inactive); with DU-145 it was 87.1 µM (inactive); in the test with OVCAR-5 it was 76.6 µM (inactive); in the test on NCI-H23, 81.8 µM (inactive); in the test on EKVX, 72.8 µM (inactive). Besides, the GI50 was 5.22 µM (inactive) in the test with MOLT-4; > 100 µM (inactive) in the test with RPMI-8226; > 100 µM (inactive) in the test with SR; 97.7 µM (inactive) with SN12C; 63.1 µM (inactive) in the test with NCI-H460; 44.4 µM (inactive) with MCF7. The GI50 with OVCAR-3 was 45.5 µM (inactive); with K562 it was > 100 µM (inactive); in the test on SF-295, > 100 µM (inactive); in the test on OVCAR-8 it was > 100 µM (inactive); with CAKI-1, 55 µM (inactive); in the test with TK-10, 49.3 µM (inactive).
